Assay results as given in publication PMC7311950, “Potent Tetrahydroquinolone Eliminates Apicomplexan Parasites” (Frontiers in Cellular and Infection Microbiology, 2020).
Read-outs that look alike come from different tables or passages of the source.

Columns and labels:
[1] = test system: Human Foreskin Fibroblast (HFF); assay: Cytotoxicity assay, WST-1 cell proliferation reagent on HFF; type: cell-based
Protocol: Toxicity assays used WST-1 cell proliferation reagent (Roche) as in Fomovska et al. ([2012a]). HFF were grown on a flat, clear-bottomed, black 96-well plate. Confluent HFF were treated with inhibitory compounds at concentrations of 10 and 50 μM. Compounds were diluted in IMDM-C, and 20 μL were added to each designated well, with triplicates for each condition. A gradient with 2-folddecreasing concentrations of DMSO from 10 to 0% in colorless, translucent IMDM-C was used as a control. The plate was incubated for 72 h at 37°C. Ten microlitre WST-1 reagent (Roche) were added to each well. Cells were incubated for 30–60 min. Absorbance was read using a fluorimeter at 420 nm. A higher degree of color change (and absorbance) indicated mitochondrial activity and cell viability.

[2] = test system: T. gondii mitochondrial membrane potential; assay: T. gondii mitochondrial membrane potential, safranine method; type: cell-based, Toxoplasma gondii; settings: doses as high as 4 μM
Protocol: The mitochondrial membrane potential was measured by the safranine method according to Vercesi et al. ([1998]). Freshly egressed T. gondii tachyzoites were filtered and washed twice with intracellular buffer (125 mM sucrose, 65 mM KCl, 10 mM HEPES-KOH buffer, pH 7.2, 1 mM MgCl2, and 2.5 mM potassium phosphate). After washing, the parasites were resuspended in the same buffer at 10^9/mL. An aliquot of 50 μL of this suspension was added to a cuvette containing Safranin O, 2.5 μM and Succinate 1 mM in final volume of 2 mL of the intracellular buffer. The fluorescence was measured with a Hitachi 7000 spectrofluorometer with settings Ex. 495/Em. 586. Once the baseline fluorescence was stable, 30 μM digitonin was added to permeabilize the parasites. Eighty five seconds after permeabilization, the THQ derivatives, dissolved in DMSO, were added. Five micromolars of FCCP (Carbonyl cyanide-4-(trifluoromethoxy) phenylhydrazone) was used as an uncoupler reference for calculations and its effect was considered 100%. We used similar conditions for measuring the mitochondrial membrane potential of mammalian cells with the following changes: the mammalian cells were resuspended at 10^8/mL. We also used 50 μL of this suspension for each experiment in a total volume of 2 mL. The substrate used for mammalian cells was 5 mM glutamate and 5 mM malate. A higher concentration of digitonin (50 μM) was used to permeabilize the mammalian cells. The compounds were added at ~400 s after permeabilization. Each experiment was repeated at least three times in duplicates. Statistical analysis, unpaired student t-test, was performed using GraphPad Prism 8.0 (GraphPad Software, Inc., San Diego, CA).
Mitochondrial membrane potential measurements were performed with permeabilized T. gondii tachyzoites in suspension using safranin O, which loads into polarized membranes [see section Materials and Methods in the Supplemental Materials (Vercesi et al., [1998])]. T. gondii tachyzoites were permeabilized with digitonin to allow the mitochondrial substrate succinate to cross the membrane and energize the mitochondrion. The fluorescence of safranin O, which loads into energized mitochondria was used to measure the membrane potential. The energized state of the mitochondrion is observed by a decrease in fluorescence (Figures 3A,C,E). Trifluoromethoxy carbonylcyanide phenylhydrazone (FCCP) was used to depolarize the membrane, which is observed as an increase in fluorescence (Figures 3A,B). JAG21 depolarized the membrane potential even at concentrations as low as 2 nM (Figures 3C,D). JAG21 and Atovaquone had similar effects on the mitochondrial membrane potential (Figure 3D). […]

[3] = test system: T. gondii RH-YFP tachyzoites; assay: In vitro challenge assay, RH strain YFP tachyzoites in HFF; type: cell-based; settings: Toxoplasma gondii; RH-YFP tachyzoites in HFF; Figure 1A; read-out: Tachy IC50
Protocol: RH strain YFP Tachyzoites. Protocol was adapted from Fomovska et al. ([2012a],[b]) for HFF. HFF were cultured on a flat, clear-bottomed, black 96-well plate to 90–100% confluence. IMDM (1x, [+] glutamine, [+] 25 mM HEPES, [+] Phenol red, 10% FBS [Gibco, Denmark]) was removed and replaced with IMDM-C(1x, [+] glutamine, [+] 25 mM HEPES, [–] Phenol red, 10% FBS)[Gibco, Denmark]). RH-YFP, lysed from host cells by passing twice through a 27-gauge needle, were counted, then diluted to 32,000/mL in IMDM-C. HFF were infected with 3200 RH-YFP, then returned to 37°C, CO2 (5%) incubator for 1–2 h for infection. Various concentrations of the compounds in 20 μL IMDM-C were added to each well. There were triplicates for each condition. Controls were pyrimethamine/sulfadiazine (standard treatment), 0.1% DMSO only, HFF only, and untreated cultures of HFF infected with 2-fold dilutions of YFP expressing parasites (called “YFP gradient” to establish amount of color from known numbers of YFP expressing parasites). Cells were incubated at 37°C for 72 h. Plates were read using a fluorimeter (Synergy H4 Hybrid Reader, BioTek) to ascertain amount of relative fluorescence units (RFU) YFP, to measure parasite burden after treatment. Data were collected using Gen5 software with IC50 calculated by graphical analysis in Excel.
An initial screening assay of 10 μM, 1 μM, 100 nM, and 10 nM of the compounds was performed. Compounds were not considered effective or pursued for further analysis if there was no inhibition of tachyzoites at 1 μM. If compounds were effective at 1 μM, another experiment was performed to assess effect at 1 μM, 500, 250, 125, 62.5, and 31.25 nM.

[4] = test system: P. falciparum strains D6, TM91-C235, W2, C2B; assay: Malaria SYBR Green I-Based Fluorescence (MSF) assay; type: cell-based; settings: Plasmodium falciparum
Protocol: Malaria potency testing in vitro was performed using 4 different P. falciparum strains, D6, TM91-C235, W2, and C2B. The D6 strain is a drug sensitive strain from Sierra Leone, the TM91-C235 strain is a multi-drug resistant strain from Thailand, the W2 strain is a chloroquine resistant strain from Thailand, and the C2B strain is a multi-drug resistant strain with resistance against atovaquone. These assays were performed as described below.
Compound activity against P. falciparum, was tested using the Malaria SYBR Green I–Based Fluorescence (MSF) Assay. The complete method for performing this microtiter assay is described in previous work published by Plouffe et al. ([2008]) and Johnson et al. ([2007]). In brief, this assay uses the binding of the fluorescent dye SYBR Green I to malaria DNA to measure parasite growth in the presence of 2-fold diluted experimental or control. The relative fluorescence of the intercalated SYBR Green I proportional to parasite growth, and inhibitory compounds will result in lower observed fluorescence compared to untreated parasites.

T. gondii RPS13Δ = assay: RPS13Δ infection of interferon γ receptor knockout mice; type: in vivo, Toxoplasma gondii; settings: mice to start 5 (Tafenoquine), 5 (JAG21)
Protocol: In pilot studies, herein, interferon γ receptor knockout mice that were not treated were observed following infection. At 7 and at 14 days following infection, spleen, and liver were removed and immune peroxidase stained. At 14 days a group of mice were treated with anhydrotetracycline and when a subset of these mice died, their spleen and liver were removed and immune peroxidase stained.
As in the pilot studies, this RPS13 Δ parasite also was used to infect interferon γ receptor knockout mice in a treatment study. In this separate study, groups of mice were infected with RPS13 Δ. They were treated with tafenoquine on day−1, or JAG21 for 14 days 2 h after infection, or the two together with tafenoquine on day−1 and JAG21 for the first 14 days, or with diluent only for 14 days, as described above. For the initial 14 days, no tetracycline was administered. After that time tetracycline was administered. Mice were observed each day. At the time they appeared to have substantial illness or at the termination of the experiment they were euthanized, tissues fixed in formalin and stained with hematoxylin and eosin or immunoperoxidase stained and parasite burden was assessed.

[5] = C2B, multi-drug resistant strain with resistance against atovaquone, read-out: SYBR Green C2B IC50
[6] = D6, drug sensitive strain, read-out: SYBR Green D6 IC50
[7] = TM91-C235, multi-drug resistant strain, read-out: SYBR Green C235 IC50
[8] = W2, chloroquine resistant strain, read-out: SYBR Green W2 IC50

Compound | Toxicity [1] | effect on mitochondrial membrane potential [2] | IC50 [3] | IC50 [4, 5] | IC50 [4, 6] | IC50 [4, 7] | IC50 [4, 8] | number of mice left at 42 (T. gondii RPS13Δ; Experiment 1, 6 (Tafenoquine+JAG21)) | number of mice left at 37 (T. gondii RPS13Δ; Experiment 2, 9 (Tafenoquine+JAG21))
COc1ccc(Oc2ccc(-c3c(C)[nH]c4c(c3=O)CCCC4)cc2)cc1OC [AS033] | 5 µM | – | – | – | – | – | – | – | –
Cc1[nH]c2c(c(=O)c1-c1ccc(Oc3ccc(C(=O)O)cc3)cc1)CCCC2 [JAG046] | – | almost no effect | > 10 µM | > 20 µM | 6.72 µM | > 20 µM | > 20 µM | – | –
Cc1[nH]c2c(c(=O)c1-c1ccc(Oc3cccc(C(=O)O)c3)cc1)CCCC2 [JAG047] | – | almost no effect | > 10 µM | 7.78 µM | 3.75 µM | 12.6 µM | 9.07 µM | – | –
COc1cc(C)c2c(Oc3cccc(C(F)(F)F)c3)c(OC)cc(NC(C)CCCN)c2n1 (stereo not drawn) [TAF, tafenoquine, reference compound] | – | – | – | – | – | – | – | 1 | 2
